The values below come from PMC3509528, “Preliminary Structure-Activity Relationship on Theonellasterol, a New Chemotype of FXR Antagonist, from the Marine Sponge Theonella swinhoei” (Marine Drugs, 2012).

In this assay the target is T1, FXR (farnesoid-X-receptor; pCMVSPORT-FXR) (Homo sapiens, UniProt Q96RI1).
T1 construct: gene NR1H4; FXR expressed from pCMVSPORT-FXR, co-transfected with pSG5-RXR in HepG2 cells; p(hsp27)TKLUC luciferase reporter (IR1 element), Renilla normalisation
T1 sequence (Q96RI1 1-486): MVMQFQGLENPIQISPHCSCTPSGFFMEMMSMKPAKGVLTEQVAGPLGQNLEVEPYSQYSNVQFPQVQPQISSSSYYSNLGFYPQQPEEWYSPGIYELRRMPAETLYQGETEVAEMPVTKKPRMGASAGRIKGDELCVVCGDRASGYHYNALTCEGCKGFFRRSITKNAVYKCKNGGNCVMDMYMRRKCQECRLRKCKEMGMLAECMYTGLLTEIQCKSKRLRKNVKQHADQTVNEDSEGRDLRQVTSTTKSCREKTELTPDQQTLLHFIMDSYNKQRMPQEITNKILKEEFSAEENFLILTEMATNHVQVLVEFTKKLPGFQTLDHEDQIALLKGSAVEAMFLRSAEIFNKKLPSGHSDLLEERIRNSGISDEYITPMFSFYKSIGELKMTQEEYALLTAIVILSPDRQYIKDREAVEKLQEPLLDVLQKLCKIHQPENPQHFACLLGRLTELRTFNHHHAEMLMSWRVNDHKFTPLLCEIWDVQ
T1 sequence (P19793 1-462 partner): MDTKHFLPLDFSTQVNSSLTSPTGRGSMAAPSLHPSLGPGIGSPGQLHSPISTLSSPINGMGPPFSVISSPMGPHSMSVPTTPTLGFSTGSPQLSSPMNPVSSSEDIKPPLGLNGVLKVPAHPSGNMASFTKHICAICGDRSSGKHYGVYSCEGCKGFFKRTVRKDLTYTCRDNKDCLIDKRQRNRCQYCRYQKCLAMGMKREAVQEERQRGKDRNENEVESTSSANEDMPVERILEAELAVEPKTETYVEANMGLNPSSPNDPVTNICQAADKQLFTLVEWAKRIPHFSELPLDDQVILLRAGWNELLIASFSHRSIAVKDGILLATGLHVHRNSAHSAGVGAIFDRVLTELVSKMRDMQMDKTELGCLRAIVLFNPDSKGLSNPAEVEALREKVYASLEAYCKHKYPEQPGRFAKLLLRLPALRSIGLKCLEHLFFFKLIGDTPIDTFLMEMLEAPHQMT
Briefly: luciferase reporter transactivation assay in transfected HepG2, antagonist mode. The format is cell-based. For orientation: A reporter such as luciferase makes a cellular process visible.

Structures are written as SMILES.

What is called EC50 is the concentration giving half of the maximal effect. High values mean a need for much substance, low ones an effect from little substance. In turn, `C=C1[C@@H](O)CC[C@@]2(C)[C@H]1CCC1=C3CC[C@H]([C@H](C)CC[C@H](CC)C(C)C)[C@@]3(C)CC[C@@H]12` [compound 1, theonellasterol] showed an EC50 of roughly 50 µM.
